Series [1] relates to Vero. As to the kind of experiment: Cytotoxicity against african green monkey Vero cells at 6.25 to 50 ug/mL measured after prolonged incubation by MTT assay. It is filed as cell-based. Conditions: chlorocebus sabaeus.
Series [2] deals with Human alphaherpesvirus 1. In words: Antiviral activity against HSV1 KOS in african green monkey Vero cells assessed as residual infectivity at 10 ug/mL by plaque formation assay. It is filed as functional.
Series [3] deals with Vero. As to the kind of experiment: Cytotoxicity against african green monkey Vero cells at 6.25 to 50 ug/mL within 8 hrs by MTT assay. Conditions: chlorocebus sabaeus. It counts as cell-based. (In general: Tetrazolium assays rely on reduction of a dye to a coloured formazan, in cell work by metabolically active cells.)

The results in this text go back to ChEMBL document CHEMBL1150858, “Two new cytotoxic and virucidal trisulfated triterpene glycosides from the Antarctic sea cucumber Staurocucumis liouvillei” (J Nat Prod, 2001).

For the compound `CO[C@@H]1[C@@H](O)[C@H](O[C@@H]2[C@@H](O)[C@H](O[C@H]3[C@H](O)[C@@H](O)[C@H](O[C@H]4[C@H](O[C@H]5CC[C@]6(C)[C@H]7CC[C@]89C(=O)O[C@@](C)(CCCC(C)C)[C@H]8[C@@H](OC(C)=O)C[C@@]9(C)C7=CC[C@H]6C5(C)C)OC[C@@H](OS(=O)(=O)[O-])[C@@H]4O)O[C@@H]3C)O[C@H](COS(=O)(=O)[O-])[C@H]2O)O[C@H](COS(=O)(=O)[O-])[C@H]1O.[Na+].[Na+].[Na+]` [LIOUVILLOSIDE B], the Activity result in series [1] was “Toxic”; in series [2] it was 2.5%; in series [3], “Non-toxic”.

On to `CO[C@@H]1[C@@H](O)[C@H](O[C@@H]2[C@@H](O)[C@H](O[C@H]3[C@H](O)[C@@H](O)[C@H](O[C@H]4[C@H](O[C@H]5CC[C@]6(C)[C@H]7CC[C@]89C(=O)O[C@@](C)(CCC=C(C)C)[C@H]8[C@@H](OC(C)=O)C[C@@]9(C)C7=CC[C@H]6C5(C)C)OC[C@@H](OS(=O)(=O)[O-])[C@@H]4O)O[C@@H]3C)O[C@H](COS(=O)(=O)[O-])[C@H]2O)O[C@H](COS(=O)(=O)[O-])[C@H]1O.[Na+].[Na+].[Na+]` [LIOUVILLOSIDE A], for which the Activity entry in series [1] is “Toxic”; in series [2] it was 24%; in series [3], “Non-toxic”.
